The values that follow come from patent US20160185808A1, “PLATINUM DERIVATIVES FOR HYDROPHOBIC FORMULATIONS” (priority 2013, published 2016).

In data set [1] the test system is SKOV3 human ovary cancer cells. Description: Therapeutic efficacy in vivo against SKOV3 tumors in Nu/Nu mice. How it is done: The therapeutic efficacy of the Pt (II) complex against cancer was examined in vivo according to the following procedure, the results of which can be seen both in Table III and in graphical form in FIG. 4. To develop orthotropic tumors, 30 Nu/Nu female mice, each weighing approximately 20 g (Charles River Laboratories, Cambridge, Mass.), were injected intraperitoneally (ip) with 1×10^6 SKOV3 human ovary cancer cells (American Type Culture Collection (ATCC), Manassas, Va.) suspended in phosphate buffered saline. Animals were then dosed with nothing (control group) or test compounds. […] Cisplatin was administered to mice as a comparative sample and its effectiveness was also examined. The doses of Pt-MMA (21 mg/kg) and cis-Platin (5 mg/kg) were calculated so that animals received equivalent amounts of Pt. Dosing began 39 days after tumor injection in cells when the tumors had reached a volume of 150 mm^3-200 mm^3 measured with a ruler.
Control or platinum compound treatment was administered on the 39th, 46th, 53th, 60th, and 66th day after initial tumor injections. The survival time of each group of mice was determined and the median survival time (days) was estimated on the basis of the observed survival time of each mouse. The therapeutic effectiveness of the Pt (II) complex is represented by the median survival significance compared to control (P-Value).

Data set [2] in a line: Storage stability of nanoemulsion formulations. The class given is physicochemical. Particulars: concentration up to 5 mg/ml, at both 4° C. and room temperature. How it is done:
The poor […] of these compounds is due to the presence of a di-fatty acid structure, which causes them to be too hydrophobic. […] Nanoemulsion formulations prepared with a concentration of up to 5 mg/ml of cisplatin mono-myristate, cisplatin mono-palmitate, and cisplatin mono-stearate were stable at both 4° C. and room temperature for approximately 3 months.

Setting [3] is: cisplatin 5 mg/kg, Pt-MMA 21 mg/kg.

As to `N.N.[Cl][Pt][Cl]` [Cisplatin, Cis-dichlorodiammine Pt (II)], the “median survival compared to control group (in words)” value in data set [1] is on record as “not significantly improved”. Moreover, in data set [1] (21 days, cisplatin 5 mg/kg, Pt-MMA 21 mg/kg), the “Average Tumor Size at 21 Days” value came to 640 ± 314 mm^3. The “Average Tumor Starting Size” value in data set [1] (at start of dosing (day 39 after tumor injection)) came to 171 ± 43 mm^3. For the same molecule, in data set [1] (setting [3]), the “Median Survival” value is listed as 28 days and the “Time for First Tumor to Reach 1000 mm^3” value stood at 17 days. Besides, the “Median Survival Significance Compared to Control (P-Value)” value in data set [1] (compared to control group) came to 0.0606.

For the molecule “cis-Diamine Pt (II) Chloride Monostearic Acid [Cisplatin-mono stearate]”, the “Time nanoemulsion formulations were stable” value in data set [2] is recorded as “approximately 3 months”.

On to `CCCCCCCCCCCCCC(=O)[O][Pt]([NH2])([NH2])[Cl]` [Cisplatin-mono myristate, cis-Diamine Pt (II) Chloride Monomyristic Acid], for which the “Time nanoemulsion formulations were stable” value in data set [2] is “approximately 3 months”.

With “cis-Diamine Pt (II) Chloride Monopalmitic Acid [Cisplatin-mono palmitate]”, in data set [2], the “Time nanoemulsion formulations were stable” value is “approximately 3 months”.
